Reference: article PMC11209699 (ACS Omega, 2024)
“Also recorded” adds a separate entry of the source.

Columns and labels:
MCL-1 = MCL-1 (Homo sapiens, UniProt Q07820); assay: fluorescence polarization; conditions: FP assay, tested up to 100 μM
H929 cells = assay: CCK-8 cell viability; type: cell-based; conditions: Homo sapiens, NCI-H929, 48 h, read-out: cytotoxicity (IC50) H929
CCK-8 cell viability = type: cell-based; conditions: human, HEK293T cells
MV-4–11 xenograft mice = assay: in vivo antitumor study, MV-4–11 xenograft mouse model
MV-4–11 cells [1] = assay: annexin V and PI double-staining flow cytometry; type: cell-based; conditions: 1 μM, MV-4–11 cells, 24 h
MV-4–11 cells [2] = assay: CCK-8 cell viability; type: cell-based; conditions: Homo sapiens, MV4-11, 48 h, read-out: cytotoxicity (IC50) MV-4–11
HeLa cells = assay: CCK-8 cell viability; type: cell-based; conditions: Homo sapiens, 48 h, read-out: cytotoxicity (IC50) HeLa
HL-60 cells = assay: CCK-8 cell viability; type: cell-based; conditions: Homo sapiens, HL-60, 48 h, read-out: cytotoxicity (IC50) HL-60
RS4;11 cells = assay: CCK-8 cell viability; type: cell-based; conditions: Homo sapiens, RS4-11, 48 h, read-out: cytotoxicity (IC50) RS4;11

MCL-1, sequence (Q07820 152-327): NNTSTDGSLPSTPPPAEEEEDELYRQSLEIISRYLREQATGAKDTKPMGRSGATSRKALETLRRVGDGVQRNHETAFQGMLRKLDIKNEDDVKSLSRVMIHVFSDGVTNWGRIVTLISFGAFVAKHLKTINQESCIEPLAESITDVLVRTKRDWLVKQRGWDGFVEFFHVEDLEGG

| Structure (SMILES) | binding to MCL-1 (in words) (MCL-1) | IC50 (H929 cells) [µM] | IC50 at 48 h (CCK-8 cell viability) [µM] | tumor growth inhibition on day 20 (MV-4–11 xenograft mice; 10 mg/kg i.p. every 2 days for 20 days) [%] | effect on body weight after 20 days (in words) (MV-4–11 xenograft mice; 10 mg/kg i.p. every 2 days, 90% confidence level vs vehicle) | cells in quadrant Q3-2 (late apoptosis, annexin V (+) and PI (+)) (MV-4–11 cells [1]) [%] | IC50 (MV-4–11 cells [2]) [µM] | IC50 (HeLa cells) [µM] | IC50 (HL-60 cells) [µM] | IC50 (RS4;11 cells) [µM] |
| --- | --- | --- | --- | --- | --- | --- | --- | --- | --- | --- |
| CC1(C)CCC(CN2CCN(c3ccc(C(=O)NS(=O)(=O)c4ccc(NCC5CCOCC5)c([N+](=O)[O-])c4)c(Oc4cnc5[nH]ccc5c4)c3)CC2)=C(c2ccc(Cl)cc2)C1 [ABT-199, reference compound] | no obvious binding | – | – | – | – | – | – | – | – | – |
| Cc1c2c(nn1C)CSCc1cc(n(C)n1)CSc1cc(c3ccccc3c1)OCCCc1c(C(=O)O)n(C)c3c-2c(Cl)ccc13 [AZD5991, reference compound] | – | 0.05 ± 0.01 | > 20 | 56 | caused significant body weight loss | ~75 | < 0.01 | – | – | – |
| O=C(/C=C/c1cn(-c2ccccc2)nc1-c1ccc2ccccc2c1)N[C@@H](Cc1c[nH]c2ccccc12)C(=O)O [GQN-B18-E, (E)-(3-(3-(Naphthalen-2-yl)-1-phenyl-1H-pyrazol-4-yl)acryloyl)-L-tryptophan] | – | > 50 | > 20 | – | – | – | > 50 | > 50 | > 20 | > 20 |
| COC(=O)[C@H](Cc1c[nH]c2ccccc12)NC(=O)/C=C/c1cn(-c2ccccc2)nc1-c1ccc2ccccc2c1 [GQN-B18-Me, Methyl-(E)-(3-(3-(naphthalen-2-yl)-1-phenyl-1H-pyrazol-4-yl)acryloyl)-L-tryptophanate] | totally abolished; also recorded: complete loss of binding | 7.97 ± 1.01 | > 20 | – | – | – | > 20 | > 20 | > 20 | > 20 |
| O=C(/C=C/c1cn(-c2cccc(Cl)c2)nc1-c1ccc(C2CCCCC2)cc1)N[C@@H](Cc1c[nH]c2ccccc12)C(=O)O [GQN-B33-E, (E)-(3-(1-(3-Chlorophenyl)-3-(4-cyclohexylphenyl)-1H-pyrazol-4-yl)acryloyl)-L-tryptophan] | – | > 50 | > 20 | – | – | – | > 20 | > 50 | > 50 | > 20 |
| COC(=O)[C@H](Cc1c[nH]c2ccccc12)NC(=O)/C=C/c1cn(-c2cccc(Cl)c2)nc1-c1ccc(C2CCCCC2)cc1 [GQN-B33-Me, Methyl-(E)-(3-(1-(3-chlorophenyl)-3-(4-cyclohexylphenyl)-1H-pyrazol-4-yl)acryloyl)-L-tryptophanate] | – | 4.64 ± 0.01 | > 20 | – | – | – | > 20 | > 50 | > 50 | > 20 |
